In US5889029A, “Use of cotinine in treating psychiatric disorders” (priority 1997, dated 1999):
Where two headings read alike, the source gives them in different places.

Assays:
[1] = cited from earlier work
[2] = humans, cited from earlier work
Histamine (H3) = biological target: T1, Histamine (H3) (Rattus norvegicus, UniProt Q9QYN8); assay: Histamine (H3) Binding Assay; details: Rat forebrain membranes, [3H]N^a-methylhistamine 0.2 nM, read-out: Receptor Binding Activity Percent Inhibition Average (N = 2)
T1 construct: Rat forebrain membranes; from tissue; host or cells: rat forebrain membranes
T1 sequence (Q9QYN8 whole entry): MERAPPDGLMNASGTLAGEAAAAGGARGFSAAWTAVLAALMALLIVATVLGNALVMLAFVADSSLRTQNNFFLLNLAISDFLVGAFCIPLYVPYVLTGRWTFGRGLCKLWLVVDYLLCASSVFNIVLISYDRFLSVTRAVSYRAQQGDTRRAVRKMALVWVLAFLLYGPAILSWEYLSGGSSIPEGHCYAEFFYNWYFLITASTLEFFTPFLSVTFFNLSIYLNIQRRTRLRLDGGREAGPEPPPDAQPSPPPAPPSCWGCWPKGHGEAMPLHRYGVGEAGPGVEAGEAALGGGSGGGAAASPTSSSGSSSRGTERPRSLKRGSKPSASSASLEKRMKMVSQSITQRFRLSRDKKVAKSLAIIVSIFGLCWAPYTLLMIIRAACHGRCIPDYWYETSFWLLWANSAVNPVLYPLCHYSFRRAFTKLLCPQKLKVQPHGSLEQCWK

[3] = biological target: T2, Benzodiazepine (Peripheral) (Rattus norvegicus, UniProt P16257); assay: Benzodiazepine (Peripheral) Binding Assay; details: read-out: Receptor Binding Activity Percent Inhibition Average (N = 2)
T2 construct: Rat kidney membranes; from tissue; host or cells: rat kidney membranes
T2 sequence (P16257 whole entry): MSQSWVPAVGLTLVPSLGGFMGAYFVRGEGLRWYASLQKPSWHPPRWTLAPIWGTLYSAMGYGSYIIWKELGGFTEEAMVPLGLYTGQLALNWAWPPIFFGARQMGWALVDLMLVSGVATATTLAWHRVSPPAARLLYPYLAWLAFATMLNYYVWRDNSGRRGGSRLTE

[4] = in vivo, cited from earlier work
[5] = cited from earlier work; remark: listed apart in the source
Histamine (H2) = biological target: T3, Histamine (H2) (Cavia porcellus, UniProt P47747); assay: Histamine (H2) Binding Assay; parameters: species or system Guinea pig; details: Guinea pig striatal membranes, [3H]Tiotidine 4.0 nM, read-out: Receptor Binding Activity Percent Inhibition Average (N = 2)
T3 construct: Guinea pig striatal membranes; from tissue; host or cells: guinea pig striatal membranes
T3 sequence (P47747 whole entry): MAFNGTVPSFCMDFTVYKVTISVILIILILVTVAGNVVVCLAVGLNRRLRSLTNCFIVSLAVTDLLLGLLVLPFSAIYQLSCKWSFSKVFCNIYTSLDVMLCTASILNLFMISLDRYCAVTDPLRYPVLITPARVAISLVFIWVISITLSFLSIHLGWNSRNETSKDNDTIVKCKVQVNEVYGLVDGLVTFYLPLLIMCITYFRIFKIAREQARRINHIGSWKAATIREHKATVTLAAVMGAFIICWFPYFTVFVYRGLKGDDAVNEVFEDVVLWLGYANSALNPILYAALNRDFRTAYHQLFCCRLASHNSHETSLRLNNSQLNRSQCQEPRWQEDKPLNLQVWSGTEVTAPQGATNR

Serotonin (5HT1) = Serotonin (5HT1) Binding Assay; details: Rat cortical membranes, [3H]Hydroxytryptamine binoxalate 3.0 nM
[6] = tested on: Glutamic Acid Decarboxylase (GAD); assay: Glutamic Acid Decarboxylase (GAD) Enzyme Assay; assay type: biochemical; details: 10^-8 M; Rat corpus striatal membranes; [14C]L-Glutamic acid
Description: Radioimmunoassay studies were conducted with rat corpus striatal membranes using the following method.
Glutamic Acid Decarboxylase (GAD) Enzyme Assay
Rat corpus striatal membranes
Substrate: [^14 C]L-Glutamic acid (30-80 Ci/mmol)
Reactions are incubated in phosphate/mercapoethanol buffer
6.9) for 30 minutes at 37° C. The reaction is
stopped by the addition
of trichloroacetic acid and placement on ice. Radioactive
trapped in phenylethylamine/methanol and quantitated using
scintillation […] in order to ascertain any
of test compounds with the glutamic acid decarboxylase

nicotinic binding site = biological target: T4, nicotinic binding site (Rattus norvegicus, UniProt P09483+P12390); assay: biochemical; details: Rat cortical membranes, [3H]N-methylcarbamylcholine iodide 2.5 nM, read-out: Receptor Binding Activity Percent Inhibition Average (N = 2)
T4 construct: Rat cortical membranes; from tissue; host or cells: rat cortical membranes
T4 sequence (P09483 31-630): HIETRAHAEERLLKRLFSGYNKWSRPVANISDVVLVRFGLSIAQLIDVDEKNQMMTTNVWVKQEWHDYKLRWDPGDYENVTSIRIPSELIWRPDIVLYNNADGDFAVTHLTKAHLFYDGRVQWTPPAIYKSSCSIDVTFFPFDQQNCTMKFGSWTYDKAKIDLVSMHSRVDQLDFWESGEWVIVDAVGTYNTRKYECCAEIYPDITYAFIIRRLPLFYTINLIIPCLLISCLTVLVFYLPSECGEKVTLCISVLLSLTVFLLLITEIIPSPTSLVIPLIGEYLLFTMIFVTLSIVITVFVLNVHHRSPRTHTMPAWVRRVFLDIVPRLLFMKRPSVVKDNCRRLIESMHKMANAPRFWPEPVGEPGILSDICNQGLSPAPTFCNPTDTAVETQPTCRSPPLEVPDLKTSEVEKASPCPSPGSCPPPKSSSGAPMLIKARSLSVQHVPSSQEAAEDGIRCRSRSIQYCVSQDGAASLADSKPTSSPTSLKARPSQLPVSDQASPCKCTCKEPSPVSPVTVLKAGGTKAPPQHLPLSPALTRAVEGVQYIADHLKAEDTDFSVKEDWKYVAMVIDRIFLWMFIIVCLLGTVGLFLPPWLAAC
T4 sequence (P12390 25-500): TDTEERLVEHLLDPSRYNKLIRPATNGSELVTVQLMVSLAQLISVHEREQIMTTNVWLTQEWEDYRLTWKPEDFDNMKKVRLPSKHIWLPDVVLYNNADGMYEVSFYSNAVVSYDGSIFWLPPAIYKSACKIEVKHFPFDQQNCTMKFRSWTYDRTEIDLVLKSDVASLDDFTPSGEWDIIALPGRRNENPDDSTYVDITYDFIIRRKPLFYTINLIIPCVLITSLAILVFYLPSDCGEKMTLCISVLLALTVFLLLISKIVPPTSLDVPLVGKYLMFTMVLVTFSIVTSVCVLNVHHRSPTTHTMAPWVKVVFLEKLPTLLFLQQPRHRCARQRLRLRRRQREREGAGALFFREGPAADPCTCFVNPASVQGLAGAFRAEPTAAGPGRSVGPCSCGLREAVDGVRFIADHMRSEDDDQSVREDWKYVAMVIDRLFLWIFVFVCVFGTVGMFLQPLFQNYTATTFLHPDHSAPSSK

[7] = biological target: T5, recombinant Rat 5HT7 Clone (Rattus norvegicus, UniProt P32305); assay: Serotonin--5HT7 Clone Binding Assay; details: [3H]LSD 2.0 nM, read-out: Receptor Binding Activity Percent Inhibition Average (N = 2)
T5 construct: expressed in transfected cells
T5 sequence (P32305 whole entry): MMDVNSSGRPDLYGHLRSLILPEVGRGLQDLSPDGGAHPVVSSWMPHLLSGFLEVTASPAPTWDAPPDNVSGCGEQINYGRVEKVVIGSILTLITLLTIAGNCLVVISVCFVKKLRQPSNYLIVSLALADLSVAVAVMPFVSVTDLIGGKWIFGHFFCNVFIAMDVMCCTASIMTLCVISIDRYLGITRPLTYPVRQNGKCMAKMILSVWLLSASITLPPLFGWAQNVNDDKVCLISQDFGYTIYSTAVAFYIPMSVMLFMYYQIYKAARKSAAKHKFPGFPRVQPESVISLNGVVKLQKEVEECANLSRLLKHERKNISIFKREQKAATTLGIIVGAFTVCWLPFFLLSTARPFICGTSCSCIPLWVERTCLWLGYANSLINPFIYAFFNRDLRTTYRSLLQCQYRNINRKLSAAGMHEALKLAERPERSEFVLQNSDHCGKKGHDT

Opiate (Delta) = biological target: T6, Opiate (Delta) (Rattus norvegicus, UniProt P33533); assay: Opiate (Delta) Binding Assay; details: read-out: Receptor Binding Activity Percent Inhibition Average (N = 2)
T6 construct: Rat forebrain membranes; from tissue; host or cells: rat forebrain membranes
T6 sequence (P33533 whole entry): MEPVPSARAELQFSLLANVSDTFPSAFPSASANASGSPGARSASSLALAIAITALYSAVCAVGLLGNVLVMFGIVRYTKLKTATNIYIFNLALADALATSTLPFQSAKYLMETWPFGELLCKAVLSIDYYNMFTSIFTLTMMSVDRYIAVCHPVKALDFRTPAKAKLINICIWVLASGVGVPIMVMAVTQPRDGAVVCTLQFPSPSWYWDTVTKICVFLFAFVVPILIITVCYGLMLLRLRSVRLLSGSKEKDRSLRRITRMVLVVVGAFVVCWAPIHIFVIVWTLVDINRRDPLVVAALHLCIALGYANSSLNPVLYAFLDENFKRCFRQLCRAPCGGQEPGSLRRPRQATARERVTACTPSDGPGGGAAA

In the case of `CN1C(=O)CCC1c1cccnc1` (single isomer, unassigned) [Cotinine, 1-methyl-5-(3-pyridinyl)-2-pyrrolidionone], the terminal elimination half-life ([1]; human, in vivo) is listed as “about 16 hours”, the half-life ([1]; in the human, in vivo) is listed as 16 to 17 h and the oral bioavailability ([1]; in vivo, po) is listed as “complete”. For the same molecule, the terminal elimination half-life ([1]; in vivo) was “sixteen”, the “blood concentration in smokers” value ([1]; nicotine: one-pack-a-day smoker, cotinine: one-half-pack-a-day smoker) was “about 300 ng/ml” and the concentration ([1]; read-out: blood concentration in smokers, nicotine: one-pack-a-day smoker, cotinine: one-half-pack-a-day smoker) was roughly 2000 nM. The cardiovascular changes ([2]; intravenous infusion over 60 minutes) was “no cardiovascular changes”, the “subjective ratings of desire to smoke, irritability, low energy and anxiety/tension” value ([2]; intravenous infusion over 60 minutes, comparable to placebo-induced changes) was “significant decreases” and the subjective ratings ([2]; rapid infusion over 5 minutes) was “no significant changes”. For the same molecule, the inhibition at 100 µM (Histamine (H3); 10^-4 M) was 15.7%, the inhibition at 1 µM (Histamine (H3); 10^-6 M) was 11.9% and the inhibition at 1 µM [3] was 8.5%. The inhibition at 100 µM [3] was 1.4%, the “passage of the blood-brain barrier” value [4] was “pass the blood-brain barrier” and the “passage of the blood-brain barrier” value ([4]; listed as cotinine) was “capable of passing the blood-brain barrier”. The “amount present in the blood without producing deleterious effects” value ([5]; humans) was ~18,000 ng/ml, the “effect on the cardiovascular system” value ([5]; in vivo) was “minimal effect” and the “harm at very high doses” value ([5]; many species, including man) was “has not been reported to be harmful”. The inhibition at 100 µM (Histamine (H2); 10^-4 M) was -1.4%, the inhibition at 1 µM (Histamine (H2); 10^-6 M) was 9.2% and the “Receptor Binding Activity Percent Inhibition Average (N = 2)” value (Serotonin (5HT1); 10^-4 M) was -0.8%. The “Receptor Binding Activity Percent Inhibition Average (N = 2)” value (Serotonin (5HT1); 10^-6 M) was 10.9%, the “Percent Inhibition” value [6] was 38% and the inhibition at 100 µM (nicotinic binding site; 10^-4 M) was 12%. The inhibition at 1 µM (nicotinic binding site; 10^-6 M) was 78.5%, the inhibition at 100 µM ([7]; 10^-4 M) was 6.4% and the inhibition at 1 µM ([7]; 10^-6 M) was -0.3%. It also gave an inhibition at 1 µM (Opiate (Delta)) of 8.3% and an inhibition at 100 µM (Opiate (Delta)) of 10%.
